Values joined by “and” are separate entries in the source; they are usually repeats but may differ in a detail not shown here. Identical values can stand only once. ± gives the expanded uncertainty stated by the source.
COC(F)(F)C(F)(F)F [methyl pentafluoroethyl ether]
Details | mass density [kg/m3]
360 K, 2003.3 kPa, Liquid | 1056.42 ± 0.49
360 K, 2053.3 kPa, Liquid | 1055.56 ± 0.49
360 K, 2463 kPa, Liquid | 1063.09 ± 0.52
360 K, 2984.8 kPa, Liquid | 1070.14 ± 0.55
360 K, 3048.1 kPa, Liquid | 1069.38 ± 0.55
360 K, 3506.1 kPa, Liquid | 1076.76 ± 0.58
360 K, 4021.5 kPa, Liquid | 1082.91 ± 0.62
360 K, 4078.7 kPa, Liquid | 1081.81 ± 0.61
360 K, 4467.5 kPa, Liquid | 1087.96 ± 0.64
360 K, 5021.2 kPa, Liquid | 1093.94 ± 0.69
360 K, 5093.9 kPa, Liquid | 1092.92 ± 0.69
360 K, 5527.2 kPa, Liquid | 1099.14 ± 0.73
360 K, 5980.2 kPa, Liquid | 1103.61 ± 0.76
360 K, 6147.8 kPa, Liquid | 1103.45 ± 0.77
360 K, 6519.9 kPa, Liquid | 1108.71 ± 0.81
360 K, 6997.3 kPa, Liquid | 1113.07 ± 0.85
360 K, 7245.1 kPa, Liquid | 1113.38 ± 0.86
370 K, 71.6 kPa, Gas | 3.44 ± 0.29
370 K, 105.5 kPa, Gas | 5.15 ± 0.29
370 K, 120.9 kPa, Gas | 6.04 ± 0.29
370 K, 154.8 kPa, Gas | 7.64 ± 0.3
370 K, 176.6 kPa, Gas | 8.92 ± 0.3
370 K, 226.2 kPa, Gas | 11.41 ± 0.31
370 K, 256.7 kPa, Gas | 13.19 ± 0.31
370 K, 328.5 kPa, Gas | 16.95 ± 0.32
370 K, 370 kPa, Gas | 19.53 ± 0.33
370 K, 471.8 kPa, Gas | 25.21 ± 0.34
370 K, 527.2 kPa, Gas | 28.67 ± 0.35
370 K, 666.8 kPa, Gas | 37.39 ± 0.38
370 K, 737.9 kPa, Gas | 42.35 ± 0.4
370 K, 920.6 kPa, Gas | 55.26 ± 0.44
370 K, 1005.3 kPa, Gas | 62.34 ± 0.47
370 K, 1205.2 kPa, Gas | 80.41 ± 0.53
370 K, 1224.5 kPa, Gas | 81.87 ± 0.54
370 K, 1277.5 kPa, Gas | 87.49 ± 0.56
370 K, 1278.1 kPa, Gas | 88.01 ± 0.57
370 K, 1404.3 kPa, Liquid | 992.2 ± 0.35
370 K, 1431.7 kPa, Liquid | 992.85 ± 0.35
370 K, 1520 kPa, Liquid | 995.4 ± 0.34
370 K, 1998.7 kPa, Liquid | 1006.05 ± 0.36
370 K, 2031.8 kPa, Liquid | 1006.03 ± 0.36
370 K, 2519.7 kPa, Liquid | 1016.39 ± 0.38
370 K, 3015.7 kPa, Liquid | 1025.26 ± 0.41
370 K, 3042 kPa, Liquid | 1024.99 ± 0.41
370 K, 3496.9 kPa, Liquid | 1033.2 ± 0.44
370 K, 4012.1 kPa, Liquid | 1041.13 ± 0.47
370 K, 4077.7 kPa, Liquid | 1041.14 ± 0.47
370 K, 4515.8 kPa, Liquid | 1048.28 ± 0.5
370 K, 5031.9 kPa, Liquid | 1055.14 ± 0.53
370 K, 5127.4 kPa, Liquid | 1055.31 ± 0.53
370 K, 5527.5 kPa, Liquid | 1061.36 ± 0.56
370 K, 5982.5 kPa, Liquid | 1066.79 ± 0.59
370 K, 6112.9 kPa, Liquid | 1067.19 ± 0.59
370 K, 6526.3 kPa, Liquid | 1072.95 ± 0.63
370 K, 6886.1 kPa, Liquid | 1076.82 ± 0.65
370 K, 7213.4 kPa, Liquid | 1079.13 ± 0.67
380 K, 74.8 kPa, Gas | 3.57 ± 0.29
380 K, 110.1 kPa, Gas | 5.3 ± 0.29
380 K, 161.5 kPa, Gas | 7.87 ± 0.3
380 K, 235.9 kPa, Gas | 11.67 ± 0.31
380 K, 268.9 kPa, Gas | 13.32 ± 0.31
380 K, 342.4 kPa, Gas | 17.25 ± 0.32
380 K, 408.5 kPa, Gas | 20.83 ± 0.33
380 K, 492.2 kPa, Gas | 25.55 ± 0.35
380 K, 502.4 kPa, Gas | 26.12 ± 0.35
380 K, 602.7 kPa, Gas | 31.98 ± 0.36
380 K, 697.5 kPa, Gas | 37.81 ± 0.38
380 K, 703.9 kPa, Gas | 38.16 ± 0.38
380 K, 804.6 kPa, Gas | 44.65 ± 0.41
380 K, 899.8 kPa, Gas | 51.1 ± 0.43
380 K, 969.2 kPa, Gas | 56.06 ± 0.45
380 K, 1019.1 kPa, Gas | 59.71 ± 0.46
380 K, 1101.8 kPa, Gas | 66.08 ± 0.49
380 K, 1212.9 kPa, Gas | 75.17 ± 0.52
380 K, 1295.3 kPa, Gas | 82.53 ± 0.55
380 K, 1299.2 kPa, Gas | 82.86 ± 0.55
380 K, 1417.2 kPa, Gas | 94.38 ± 0.59
380 K, 1486.5 kPa, Gas | 101.79 ± 0.62
380 K, 1486.8 kPa, Gas | 101.8 ± 0.62
380 K, 1499.7 kPa, Gas | 103.34 ± 0.63
380 K, 1530.9 kPa, Gas | 107.11 ± 0.64
380 K, 1744.3 kPa, Liquid | 935.88 ± 0.5
380 K, 1763.3 kPa, Liquid | 936.59 ± 0.5
380 K, 1785 kPa, Liquid | 937.35 ± 0.5
380 K, 1807.8 kPa, Liquid | 938.21 ± 0.5
380 K, 2057.3 kPa, Liquid | 946.7 ± 0.47
380 K, 2481.3 kPa, Liquid | 959.56 ± 0.44
380 K, 2986.2 kPa, Liquid | 972.71 ± 0.41
380 K, 3036.6 kPa, Liquid | 973.66 ± 0.41
380 K, 3496.2 kPa, Liquid | 984.34 ± 0.38
380 K, 4004.9 kPa, Liquid | 994.7 ± 0.35
380 K, 4035.7 kPa, Liquid | 994.89 ± 0.35
380 K, 4514.5 kPa, Liquid | 1004.14 ± 0.35
380 K, 4998.2 kPa, Liquid | 1012.37 ± 0.38
380 K, 5093.2 kPa, Liquid | 1013.21 ± 0.38
380 K, 5510.3 kPa, Liquid | 1020.45 ± 0.41
380 K, 6032.6 kPa, Liquid | 1028.11 ± 0.44
380 K, 6103.7 kPa, Liquid | 1028.48 ± 0.44
380 K, 6514.1 kPa, Liquid | 1034.76 ± 0.47
380 K, 7011.9 kPa, Liquid | 1041.19 ± 0.5
380 K, 7127.1 kPa, Liquid | 1041.96 ± 0.5

mass density
Details | 360 K | 370 K | 380 K
Gas | 77.81 ± 0.25 kg/m3 | 101.33 ± 0.29 kg/m3 | 133.96 ± 0.34 kg/m3
Liquid | 1040.97 ± 0.43 kg/m3 and 1042.15 ± 0.43 kg/m3 and 1042.21 ± 0.43 kg/m3 | 991.98 ± 0.35 kg/m3 and 992.32 ± 0.35 kg/m3 and 992.42 ± 0.35 kg/m3 | 934.86 ± 0.48 kg/m3 and 935.87 ± 0.48 kg/m3

From the NIST ThermoML archive (doi:10.1021/je025657+)
